Legend:
[1] = test system: Hoxa9-Meis1 transformed cells; assay: Colony forming assay in Hoxa9-Meis1 transformed cells; format: cell-based, murine; conditions: Hoxa9-Meis1 in vitro transformed cells, EPZ4777 10 μM
[2] = test system: menin, H3K4me3 and H3K79me2 at HOX and MEIS1 loci in OCI-AML3 cells; assay: Chromatin immunoprecipitation-qPCR and immunoblotting of chromatin marks in OCI-AML3 cells; format: cell-based, human; conditions: OCI-AML3, EPZ4777 10 μM
[3] = test system: HOX, MEIS1 and FLT3 expression in OCI-AML3 cells; assay: Gene expression (quantitative PCR / RNA sequencing) in OCI-AML3 cells; format: cell-based, human
[4] = test system: Npm1CA/+RosaSB/+ and Npm1CA/+Flt3ITD/+ leukemia cells; assay: Colony forming and liquid culture proliferation assays in murine NPM1mut leukemia cells; format: cell-based; conditions: EPZ4777 10 μM
Description: For drug testing experiments, leukemic blasts were harvested from moribund primarily transplanted mice and cultured in vitro.
(§1) Proliferation assays were performed as previously described. Viable cell counts were determined by flow cytometry using Sytox Blue (Invitrogen) or DAPI viability stains.
RNA and DNA purification, cDNA synthesis, quantitative real-time (qRT-) PCR, western blotting, flow cytometry, colony forming assays, viral transduction and shRNA based knock down experiments were performed using standard procedures. Primer sequences, western antibodies, and plasmids are also listed in the supplement.

[5] = test system: Npm1CA/+RosaSB/+ leukemia cells; assay: Transplantation of ex vivo pretreated Npm1CA/+RosaSB/+ leukemia cells (leukemia initiating potential); format: in vivo, mice; conditions: for survival compared to vehicle control: pretreated Npm1CA/+RosaSB/+ cells, single compound
Description: As HOX gene expression is associated with self-renewal properties, the inventors next determined whether pharmacological DOT1L inhibition inhibits NPM1^mut leukemia initiation in mice. Murine Npm1^CA/+Rosa^SB/+ leukemia cells were treated ex vivo with EPZ4777 or drug vehicle for 10 days and equal numbers of viable cells were transplanted into sublethally irradiated recipient animals.
Npm1^CA/+Flt3^ITD/+ and Npm1^CA/+Rosa^SB/+ cells were harvested from moribund leukemic animals and transplanted into primary and secondary recipient mice as previously described. […] All transplantation experiments with ex vivo treated cells were performed as secondary transplantations.

DOT1L = DOT1L (Homo sapiens (Human), UniProt Q8TEK3); conditions: cited from earlier work
DOT1L, sequence (Q8TEK3 whole entry): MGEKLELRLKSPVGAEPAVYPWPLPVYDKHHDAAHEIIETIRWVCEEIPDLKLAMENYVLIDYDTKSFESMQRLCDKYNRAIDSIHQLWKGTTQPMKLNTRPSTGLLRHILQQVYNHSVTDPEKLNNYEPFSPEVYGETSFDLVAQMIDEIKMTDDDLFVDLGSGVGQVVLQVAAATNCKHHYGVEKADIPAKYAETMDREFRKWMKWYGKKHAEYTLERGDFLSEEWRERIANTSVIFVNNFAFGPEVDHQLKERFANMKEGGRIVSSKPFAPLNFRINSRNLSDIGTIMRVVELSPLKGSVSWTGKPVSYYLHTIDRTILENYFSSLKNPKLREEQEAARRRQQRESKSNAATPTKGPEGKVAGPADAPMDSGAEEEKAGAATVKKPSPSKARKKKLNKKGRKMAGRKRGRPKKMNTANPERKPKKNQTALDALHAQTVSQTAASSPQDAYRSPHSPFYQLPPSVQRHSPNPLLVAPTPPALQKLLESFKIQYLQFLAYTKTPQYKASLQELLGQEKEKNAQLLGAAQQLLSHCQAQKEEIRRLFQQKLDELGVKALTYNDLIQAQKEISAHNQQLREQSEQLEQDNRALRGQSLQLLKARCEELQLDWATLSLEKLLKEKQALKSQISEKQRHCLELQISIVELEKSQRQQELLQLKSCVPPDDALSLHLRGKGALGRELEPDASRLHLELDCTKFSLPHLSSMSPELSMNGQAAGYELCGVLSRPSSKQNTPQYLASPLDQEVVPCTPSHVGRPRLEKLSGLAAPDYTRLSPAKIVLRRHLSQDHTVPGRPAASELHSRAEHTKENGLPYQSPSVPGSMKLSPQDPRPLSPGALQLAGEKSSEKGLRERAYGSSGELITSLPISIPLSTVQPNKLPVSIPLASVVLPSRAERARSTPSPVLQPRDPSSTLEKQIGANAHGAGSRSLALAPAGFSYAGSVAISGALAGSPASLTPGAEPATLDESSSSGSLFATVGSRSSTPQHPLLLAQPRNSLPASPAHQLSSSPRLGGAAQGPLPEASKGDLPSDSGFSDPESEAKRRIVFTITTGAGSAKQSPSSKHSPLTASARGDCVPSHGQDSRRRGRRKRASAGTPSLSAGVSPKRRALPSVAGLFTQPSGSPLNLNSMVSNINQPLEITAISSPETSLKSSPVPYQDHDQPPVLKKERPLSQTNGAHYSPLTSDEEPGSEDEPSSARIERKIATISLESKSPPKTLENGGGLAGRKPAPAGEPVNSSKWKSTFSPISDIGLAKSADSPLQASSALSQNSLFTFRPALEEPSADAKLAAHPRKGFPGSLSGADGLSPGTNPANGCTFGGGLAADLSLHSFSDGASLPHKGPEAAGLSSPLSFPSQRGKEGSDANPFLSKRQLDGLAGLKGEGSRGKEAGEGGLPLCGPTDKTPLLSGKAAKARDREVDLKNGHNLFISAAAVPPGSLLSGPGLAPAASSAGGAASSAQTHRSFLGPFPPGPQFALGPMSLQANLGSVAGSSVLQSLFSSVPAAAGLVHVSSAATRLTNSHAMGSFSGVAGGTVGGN

OCI-AML3 cells [6] = assay: Cell viability / proliferation assay in OCI-AML3 cells; format: cell-based, human
Description: as §1

HL-60 cells = assay: Cell viability / proliferation assay in HL-60 cells; format: cell-based, human
Description: as §1

OCI-AML3 cells [7] = assay: Cell differentiation by CD11b flow cytometry in OCI-AML3 cells; format: cell-based, human; conditions: OCI-AML3, MI-2-2 12 μM, day seven of treatment
OCI-AML3 cells [8] = assay: OCI-AML3 xenotransplantation model in NSG mice; format: in vivo; conditions: MI-503 50 mg/kg bid IP, versus vehicle
[9] = OCI-AML3, 4 days of MI-2-2 treatment (12 μM)

CC(C)N(CCCNC(=O)Nc1ccc(C(C)(C)C)cc1)C[C@H]1O[C@@H](n2ccc3c(N)ncnc32)[C@H](O)[C@@H]1O [EPZ4777]
colony forming potential [1]: unaffected | H3K79me2 marks (immunoblotting and ChIP-PCR) [2]: global and HOXA and HOXB loci specific reduction | FLT3 expression ([3]; EPZ4777 10 μM, 7 days, all NPM1mut models): dramatic suppression | HOX gene expression ([3]; EPZ4777 10 μM, 7 days, human and murine models): significant repression | cell proliferation and colony forming potential [4]: profound reduction | WBC counts at time of disease onset within the control group ([5]; cells treated ex vivo with EPZ4777 for 10 days): significantly lower WBC counts | survival of recipient animals ([5]; cells treated ex vivo with EPZ4777 for 10 days, versus vehicle): significant survival advantage | survival compared to vehicle control [5]: significantly prolonged survival | specificity for DOT1L as compared to other methyl transferases (DOT1L): highly specific for DOT1L | cell proliferation (OCI-AML3 cells [6]; human NPM1mut leukemia cells (OCI-AML3), EPZ4777 10 μM): profound reduction | cell proliferation (HL-60 cells; HL-60, EPZ4777 10 μM): unaffected

CC1(C)CN=C(N2CCN(c3ncnc4sc(CC(F)(F)F)cc34)CC2)S1 [MI-2-2]
CD11b expression (OCI-AML3 cells [7]): 72% | FLT3 transcript levels [3, 9]: substantially and highly significantly suppressed | HOXA, HOXB cluster and MEIS1 gene expression [3, 9]: significant down regulation | cell proliferation (OCI-AML3 cells [6]; OCI-AML3, dose response, 11 days of MI-2-2 treatment): profound dose-dependent reduction in cell proliferation | cell growth inhibition (HL-60 cells; HL-60 (no NPM1mut or MLL-rearrangement), MI-2-2 dose response): only a mild cell growth inhibitory effect at higher doses

Cc1c(CN2CCC(Nc3ncnc4sc(CC(F)(F)F)cc34)CC2)ccc2c1cc(C#N)n2Cc1cn[nH]c1 [MI-503]
leukemia burden (percentage of bone marrow cells expressing human CD45) (OCI-AML3 cells [8]; 7 and 12 days): significantly reduced | HOXB4, MEIS1 and FLT3 expression in sorted human CD45 positive cells (OCI-AML3 cells [8]): dramatic decrease of expression levels | survival compared to vehicle control [5]: significantly prolonged survival | potency compared with MI-2-2 (dose response curves) (OCI-AML3 cells [6]; human and murine NPM1mut leukemia cells): higher potency

— patent publication US20260007675A1, “TARGETING CHROMATIN REGULATORS INHIBITS LEUKEMOGENIC GENE EXPRESSION IN NPM1 MUTANT LEUKEMIA” (MEMORIAL SLOAN KETTERING CANCER CENTER, priority 2016, published 2026)
